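Compound exposure: 48 hours, 5 concentrations, 96-well plates. GI50 marks 50% less growth.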 Active and inactive are the calls of the source. Cut-off read from the data, not from the text of the source: active = GI50 up to about 1.1 µM and inactive = higher. Square brackets hold non-standard residues; d marks the D form. Peptide text beside a SMILES is read from it. 2Nal = N[CH](Cc1ccc2ccccc2c1)C(=O)O
Key:
Test in all cases: NCI anticancer screen, dose series, 48 h
[1] = tested on: 786-0
[2] = tested on: ACHN
[3] = tested on: DMS-114
[4] = tested on: HCT-15
[5] = tested on: HL-60
[6] = tested on: HOP-62
[7] = tested on: IGROV-1
[8] = tested on: KM12
[9] = tested on: MOLT-4
[10] = tested on: NCI-H226
[11] = tested on: NCI-H460
[12] = tested on: OVCAR-3
[13] = tested on: OVCAR-5
[14] = tested on: SF-539
[15] = tested on: SK-MEL-28
[16] = tested on: SN12C
[17] = tested on: U-251
[18] = tested on: MDA-MB-231
[19] = tested on: MDA-N
[20] = tested on: NCI/ADR-RES

Row | Compound | GI50 [1] | GI50 [2] | GI50 [3] | GI50 [4] | GI50 [5] | GI50 [6] | GI50 [7] | GI50 [8] | GI50 [9] | GI50 [10] | GI50 [11] | GI50 [12] | GI50 [13] | GI50 [14] | GI50 [15] | GI50 [16] | GI50 [17] | GI50 [18] | GI50 [19] | GI50 [20]
1 | O=C1c2ccccc2C(=O)N1Cc1ccccc1-c1c2nc(c(-c3ccccc3CN3C(=O)c4ccccc4C3=O)c3ccc([nH]3)c(-c3ccccc3CN3C(=O)c4ccccc4C3=O)c3nc(c(-c4ccccc4CN4C(=O)c5ccccc5C4=O)c4ccc1[nH]4)C=C3)C=C2 | > 100 µM (inactive) | > 100 µM (inactive) | > 100 µM (inactive) | > 100 µM | > 100 µM (inactive) | > 100 µM (inactive) | > 100 µM (inactive) | > 100 µM (inactive) | > 100 µM (inactive) | > 100 µM (inactive) | > 100 µM (inactive) | > 100 µM (inactive) | > 100 µM (inactive) | > 100 µM (inactive) | > 100 µM (inactive) | > 100 µM (inactive) | > 100 µM (inactive) |  |  | 
2 | NCCNc1ccc(NCCN)c2c1C(=O)c1c(O)ccc(O)c1C2=O | 0.00459 µM (active) | 0.00542 µM (active) | < 0.001 µM (active) | 0.161 µM | 0.0407 µM (active) |  | 0.0873 µM (active) | 0.118 µM (active) | < 0.001 µM (active) | 0.0018 µM (active) | < 0.001 µM (active) | 0.486 µM (active) | 0.971 µM (active) | 0.0219 µM (active) | 1.07 µM (active) | 0.00483 µM (active) |  | 0.681 µM (active) | 1.13 µM (inactive) | 0.192 µM (active)
3 | Cc1cc(NS(=O)(=O)c2ccc(NC(=O)COC(=O)c3cccc4c(=O)c5ccccc5[nH]c34)cc2)no1 | > 100 µM (inactive) | > 100 µM (inactive) | > 100 µM (inactive) | > 100 µM | > 100 µM (inactive) | > 100 µM (inactive) | > 100 µM (inactive) | > 100 µM (inactive) | > 100 µM (inactive) | > 100 µM (inactive) | > 100 µM (inactive) | > 100 µM (inactive) | > 100 µM (inactive) | > 100 µM (inactive) | > 100 µM (inactive) | > 100 µM (inactive) | > 100 µM (inactive) |  |  | 
4 | Cc1c(C)c2cc3c(=O)c(CCl)coc3c(C)c2oc1=O | 60.5 µM (inactive) | > 100 µM (inactive) | > 100 µM (inactive) | > 100 µM | > 100 µM (inactive) | > 100 µM (inactive) | > 100 µM (inactive) | > 100 µM (inactive) | > 100 µM (inactive) | > 100 µM (inactive) | > 100 µM (inactive) | > 100 µM (inactive) | > 100 µM (inactive) | > 100 µM (inactive) | > 100 µM (inactive) | > 100 µM (inactive) | > 100 µM (inactive) |  |  | 
5 | COC(=O)C(Cc1nc2ccc(Cl)cc2nc1O)/C(=N/O)C(=O)Nc1cccc(Cl)c1C (stereo not given) | > 100 µM (inactive) | > 100 µM (inactive) | > 100 µM (inactive) | > 100 µM | > 100 µM (inactive) | > 100 µM (inactive) | > 100 µM (inactive) | > 100 µM (inactive) | > 100 µM (inactive) | > 100 µM (inactive) | > 100 µM (inactive) | > 100 µM (inactive) | > 100 µM (inactive) | > 100 µM (inactive) | > 100 µM (inactive) | > 100 µM (inactive) | > 100 µM (inactive) |  |  | 
6 | CCOc1cccc2sc(N)nc12 | > 100 µM (inactive) | > 100 µM (inactive) | > 100 µM (inactive) | > 100 µM | > 100 µM (inactive) | > 100 µM (inactive) | > 100 µM (inactive) | > 100 µM (inactive) | > 100 µM (inactive) | > 100 µM (inactive) | > 100 µM (inactive) | > 100 µM (inactive) | > 100 µM (inactive) | > 100 µM (inactive) | > 100 µM (inactive) | > 100 µM (inactive) | > 100 µM (inactive) |  |  | 
7 | Cc1nc2ccc(NCCN(C)C)c3c(=O)c4cc(O)ccc4n1c23 | 0.228 µM (active) | 0.103 µM (active) | 0.885 µM (active) | 0.394 µM | 0.662 µM (active) | 0.433 µM (active) | 0.839 µM (active) | 0.783 µM (active) | 0.0164 µM (active) | 0.109 µM (active) | 0.0291 µM (active) | 1.27 µM (inactive) | 1.42 µM (inactive) | 0.733 µM (active) | 3.03 µM (inactive) | 0.299 µM (active) | 0.352 µM (active) | 2.56 µM (inactive) | 1.43 µM (inactive) | 1.27 µM (inactive)
8 | COc1cc(C(=O)C/C(CCC(=O)Nc2ccc(Cl)cc2Cl)=N/NC(=O)C(N)=O)ccc1O | > 100 µM (inactive) | > 100 µM (inactive) | > 100 µM (inactive) | > 100 µM | > 100 µM (inactive) | 79.6 µM (inactive) | > 100 µM (inactive) | 85.7 µM (inactive) | > 100 µM (inactive) | > 100 µM (inactive) | > 100 µM (inactive) | > 100 µM (inactive) | > 100 µM (inactive) | > 100 µM (inactive) | > 100 µM (inactive) | > 100 µM (inactive) | > 100 µM (inactive) |  |  | 
9 | CC(C)C(NC(=O)C(CCCCN)NC(=O)C(Cc1c[nH]c2ccccc12)NC(=O)C(Cc1ccc(O)cc1)NC(=O)C(CS)NC(=O)C(N)Cc1ccc2ccccc2c1)C(=O)NC(CS)C(=O)NC(C(N)=O)C(C)O (stereo not given) (H-[2Nal]CYWKVCT-NH2; configuration not given here) | > 12.5 µM (inactive) | > 12.5 µM (inactive) | > 100 µM (inactive) | > 12.5 µM | > 12.5 µM (inactive) | > 12.5 µM (inactive) | > 12.5 µM (inactive) | > 12.5 µM (inactive) | > 12.5 µM (inactive) | > 12.5 µM (inactive) | > 12.5 µM (inactive) | > 12.5 µM (inactive) | > 12.5 µM (inactive) | > 12.5 µM (inactive) | > 100 µM (inactive) | > 12.5 µM (inactive) | > 12.5 µM (inactive) | > 12.5 µM (inactive) | > 12.5 µM (inactive) | > 12.5 µM (inactive)
